Drawing on US20170107207A1, “AMINOPYRAZOLONE DERIVATIVE” (DAIICHI SANKYO COMPANY, LIMITED, priority 2014, published 2017), this text covers IC50 and GI50 for 5 compounds.

The structures appear in SMILES notation.

One may read the IC50 as the concentration that inhibits the measured activity by half. Low values mean higher potency, high ones lower potency. Usually GI50 stands for the concentration giving 50% growth inhibition.

One test concerns the target T1, TIP48/TIP49 complex (Homo sapiens, UniProt Q9Y230+Q9Y265).
T1 construct: made in house; host or cells: E. coli
The test can be described thus: ATPase assay of TIP48/TIP49 complex (ADP-Glo). Format: biochemical. The conditions noted are these: concentration at which the ATPase activity was inhibited by 50%. An outline of the steps: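 Compound was tested over 10 four-fold concentrations, 200 μM down to 0.0007 μM at 2% DMSO, against E. coli-derived human rTIP48/rTIP49 for 1.5 h at room temperature, pH 7.5 with ATP. ATP hydrolysis was read as ADP-Glo luminescence, normalised to complex-only and no-complex wells, then fitted to dose-response curves.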
Background: ADP-Glo first removes unused ATP, then detects ADP through luciferase.

In test [1] the test system is human lymphoma cell line RAMOS cells. The test can be described thus: Cell growth inhibition test using RAMOS cell, MTT assay. Format: cell-based. The note with it: 50% growth inhibition concentration. The gist of the method: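 Cells in RPMI1640 with 10% FBS were exposed to compound (DMSO ≤1%) for 3 days at 37° C, 5% CO2. Viability was read by MTT (4 h, formazan in DMSO, OD 540/660 nm) against a day-0 plate; GI50 was interpolated from T/C % growth rates.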
In general terms: Formazan colour is commonly taken as a measure of viable cells.

Test [2] has the same test system. The experiment in a line: Cell growth inhibition test using RAMOS cell, ATP assay (CellTiter-Glo). Format: cell-based. The conditions noted are these: Homo sapiens, Ramos, 72 h, cultured 3 days, 50% growth inhibition concentration. An outline of the steps: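 RAMOS cells seeded at 4000 cells/well with compound and cultured 3 days at 37° C, 5% CO2; viability by CellTiter-Glo luminescence. Growth rate T/C % = 100×[(B−C)/(A−C)] using day-0 and final readings; GI50 interpolated from the two concentrations bracketing 50% growth.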
For orientation: ATP-based viability assays read luminescence as a measure of living cells.

T1 sequence (Q9Y230 whole entry): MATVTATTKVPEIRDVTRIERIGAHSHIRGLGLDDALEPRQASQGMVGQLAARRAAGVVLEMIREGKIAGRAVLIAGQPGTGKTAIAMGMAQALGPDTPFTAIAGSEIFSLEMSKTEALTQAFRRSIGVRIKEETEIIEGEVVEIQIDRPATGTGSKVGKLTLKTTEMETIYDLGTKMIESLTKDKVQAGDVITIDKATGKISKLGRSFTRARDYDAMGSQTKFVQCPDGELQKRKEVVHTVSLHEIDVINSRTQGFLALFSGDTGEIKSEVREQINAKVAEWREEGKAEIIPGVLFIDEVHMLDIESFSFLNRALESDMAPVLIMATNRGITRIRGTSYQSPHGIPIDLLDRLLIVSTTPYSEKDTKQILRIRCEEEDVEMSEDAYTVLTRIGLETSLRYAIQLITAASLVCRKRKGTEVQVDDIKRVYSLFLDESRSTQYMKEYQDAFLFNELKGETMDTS
T1 sequence (Q9Y265 whole entry): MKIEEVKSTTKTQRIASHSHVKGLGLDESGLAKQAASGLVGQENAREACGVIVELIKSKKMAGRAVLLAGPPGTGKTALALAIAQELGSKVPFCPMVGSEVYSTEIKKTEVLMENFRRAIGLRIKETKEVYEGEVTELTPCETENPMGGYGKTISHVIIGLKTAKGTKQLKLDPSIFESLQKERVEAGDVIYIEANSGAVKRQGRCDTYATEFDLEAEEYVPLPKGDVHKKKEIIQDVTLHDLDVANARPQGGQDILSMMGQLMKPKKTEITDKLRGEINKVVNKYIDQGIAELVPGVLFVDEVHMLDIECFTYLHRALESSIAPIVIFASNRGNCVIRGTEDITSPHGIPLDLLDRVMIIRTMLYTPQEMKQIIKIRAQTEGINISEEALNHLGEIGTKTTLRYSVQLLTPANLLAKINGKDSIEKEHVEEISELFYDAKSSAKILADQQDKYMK

Compound `CCOc1ccc(Cl)cc1C(=O)NCC(C)(C)CC(=O)Nc1c(CCN(C)C)n(CC)n(-c2ccccc2)c1=O` [Example 40, 5-Chloro-N-[4-({5-[2-(dimethylamino)ethyl]-1-ethyl-3-oxo-2-phenyl-2,3-dihydro-1H-pyrazol-4-yl}amino)-2,2-dimethyl-4-oxobutyl]-2-ethoxybenzamide] registered a concentration for half-maximal inhibition (IC50) against TIP48/TIP49 complex of 33 nM. The concentration for 50% growth inhibition (GI50) in test [1] came out at 27 nM; in test [2], 120 nM.
For `CCOc1ccc(Cl)cc1C(=O)NCC(C)(C)CC(=O)Nc1c(COC)n(C)n(-c2ccccc2)c1=O` [Example 114, 5-Chloro-2-ethoxy-N-(4-{[5-(methoxymethyl)-1-methyl-3-oxo-2-phenyl-2,3-dihydro-1H-pyrazol-4-yl]amino}-2,2-dimethyl-4-oxobutyl)benzamide] the same measures were 31 nM, 42 nM and 140 nM.
For `CCOc1ncc(Cl)cc1NC(=O)CC(C)(C)CC(=O)Nc1c(COC)n(C)n(-c2ccccc2)c1=O` [Example 118, N-(5-Chloro-2-ethoxy-3-pyridine)-N′-[5-(methoxymethyl)-1-methyl-3-oxo-2-phenyl-2,3-dihydro-1H-pyrazol-4-yl]-3,3-dimethylpentanediamide] the same measures were 65 nM, 230 nM and 640 nM.
In the case of `Cc1cccc(-n2c(=O)c(NC(=O)CC(C)(C)CNC(=O)c3cc(Cl)cc4cc(C)oc34)c(C)n2C)n1` [Example 155, 5-Chloro-N-(4-{[1,5-dimethyl-2-(6-methyl-2-pyridyl)-3-oxopyrazol-4-yl]amino}-2,2-dimethyl-4-oxobutyl)-2-methylbenzofuran-7-carboxamide], inhibition against TIP48/TIP49 complex was half-maximal at 59 nM (IC50). Further, the figures for the 50% growth inhibitory concentration (GI50) in test [1] and in test [2] were 59 nM and 190 nM, respectively.
As to `CCOc1ccc(Cl)cc1C(=O)NCC(C)(C)CC(=O)Nc1c(C)n(C)n(-c2cc(OC)ccn2)c1=O` [Example 157, 5-Chloro-2-ethoxy-N-(4-{[1-(4-methoxy-2-pyridyl)-2,3-dimethyl-5-oxopyrazol-4-yl]amino}-2,2-dimethyl-4-oxobutyl)benzamide], inhibition against TIP48/TIP49 complex was half-maximal at 140 nM (IC50). For the same compound, the figures for the GI50 in test [1] and in test [2] were 120 nM and 430 nM, respectively.
